Columns and labels:
Assay in all cases: SelectScreen kinase profiling, SSBK ZLyte SP Technology
Format in all cases: biochemical
[1] = target: kinase named in conditions (Homo sapiens, UniProt P42679); conditions: MATK (HYL), 10 μM
Method: (§1) Kinase selectivity screening was performed by Thermo Fisher Scientific (Paisley, U.K.) in their SelectScreen Biochemical Kinase Profiling Service. Assay information and data are presented in the Supporting Information.
(§2) Kinase selectivity screening was performed by ThermoFisher Scientific (Paisley, U.K.) in their SelectScreenTM
(§3) Biochemical Kinase Profiling service .

[2] = target: kinase named in conditions (Homo sapiens, UniProt P29323); conditions: EPHB2, 10 μM
Method: as §1, §2, §3

[3] = target: kinase named in conditions (Homo sapiens, UniProt P17612); conditions: PRKACA (PKA), 10 μM
Method: as §1, §2, §3

[4] = target: kinase named in conditions (Homo sapiens, UniProt O15146); conditions: MUSK, 10 μM
Method: as §1, §2, §3

[5] = target: kinase named in conditions (Homo sapiens, UniProt Q9Y5S2); conditions: CDC42 BPB (MRCKB), 10 μM
Method: as §1, §2, §3

[6] = target: kinase named in conditions (Homo sapiens, UniProt Q9UHD2); conditions: TBK1, 10 μM
Method: as §1, §2, §3

[7] = target: kinase named in conditions (Homo sapiens, UniProt P48729); conditions: CSNK1A1 (CK1 alpha 1), 10 μM
Method: as §1, §2, §3

[8] = target: kinase named in conditions (Homo sapiens, UniProt Q16512); conditions: PKN1 (PRK1), 10 μM
Method: as §1, §2, §3

[9] = target: kinase named in conditions (Homo sapiens, UniProt P51812); conditions: RPS6KA3 (RSK2), 10 μM
Method: as §1, §2, §3

[10] = target: kinase named in conditions (Homo sapiens, UniProt O15264); conditions: MAPK13 (p38 delta), 10 μM
Method: as §1, §2, §3

[11] = target: kinase named in conditions (Homo sapiens, UniProt Q02156); conditions: PRKCE (PKC epsilon), 10 μM
Method: as §1, §2, §3

[12] = target: kinase named in conditions (Homo sapiens, UniProt P00533, C797S); conditions: EGFR (ErbB1) C797S, 10 μM
Method: as §1, §2, §3

[13] = target: kinase named in conditions (Homo sapiens, UniProt Q9H792); conditions: PEAK1, 10 μM
Method: as §1, §2, §3

[14] = target: kinase named in conditions (Homo sapiens, UniProt P78362); conditions: SRPK2, 10 μM
Method: as §1, §2, §3

[15] = target: kinase named in conditions (Homo sapiens, UniProt P04629); conditions: NTRK1 (TRKA), 10 μM
Method: as §1, §2, §3

[16] = target: kinase named in conditions (Homo sapiens, UniProt P09769); conditions: FGR, 10 μM
Method: as §1, §2, §3

[17] = target: kinase named in conditions (Homo sapiens, UniProt Q15349); conditions: RPS6KA2 (RSK3), 10 μM
Method: as §1, §2, §3

[18] = target: kinase named in conditions (Homo sapiens, UniProt P35626); conditions: ADRBK2 (GRK3), 10 μM
Method: as §1, §2, §3

[19] = target: kinase named in conditions (Homo sapiens, UniProt Q9NWZ3); conditions: IRAK4, 10 μM
Method: as §1, §2, §3

[20] = target: kinase named in conditions (Homo sapiens, UniProt P19784); conditions: CSNK2A2 (CK2 alpha 2), 10 μM
Method: as §1, §2, §3

[21] = target: kinase named in conditions (Homo sapiens, UniProt P78368); conditions: CSNK1G2 (CK1 gamma 2), 10 μM
Method: as §1, §2, §3

[22] = target: kinase named in conditions (Homo sapiens, UniProt P51813); conditions: BMX, 10 μM
Method: as §1, §2, §3

[23] = target: kinase named in conditions (Homo sapiens, UniProt P42345); conditions: FRAP1 (mTOR), 10 μM
Method: as §1, §2, §3

[24] = target: kinase named in conditions (Homo sapiens, UniProt P49674); conditions: CSNK1E (CK1 epsilon), 10 μM
Method: as §1, §2, §3

[25] = target: kinase named in conditions (Homo sapiens, UniProt P22607); conditions: FGFR3, 10 μM
Method: as §1, §2, §3

[26] = target: kinase named in conditions (Homo sapiens, UniProt P07332); conditions: FES (FPS), 10 μM
Method: as §1, §2, §3

[27] = target: kinase named in conditions (Homo sapiens, UniProt P45984); conditions: MAPK9 (JNK2), 10 μM
Method: as §1, §2, §3

[28] = target: kinase named in conditions (Homo sapiens, UniProt P42681); conditions: TXK, 10 μM
Method: as §1, §2, §3

[29] = target: kinase named in conditions (Homo sapiens, UniProt Q9HCP0); conditions: CSNK1G1 (CK1 gamma 1), 10 μM
Method: as §1, §2, §3

[30] = target: kinase named in conditions (Homo sapiens, UniProt P54646)
Method: as §1, §2, §3

[31] = target: kinase named in conditions (Homo sapiens, UniProt P08581); conditions: MET (cMet), 10 μM
Method: as §1, §2, §3

[32] = target: kinase named in conditions (Homo sapiens, UniProt P68400); conditions: CSNK2A1 (CK2 alpha 1), 10 μM
Method: as §1, §2, §3

[33] = target: kinase named in conditions (Homo sapiens, UniProt P23443); conditions: RPS6KB1 (p70S6K), 10 μM
Method: as §1, §2, §3

[34] = target: kinase named in conditions (Homo sapiens, UniProt O75116); conditions: ROCK2, 10 μM
Method: as §1, §2, §3

Chain of kinase named in conditions (Homo sapiens, UniProt P54646) (P54646 whole entry): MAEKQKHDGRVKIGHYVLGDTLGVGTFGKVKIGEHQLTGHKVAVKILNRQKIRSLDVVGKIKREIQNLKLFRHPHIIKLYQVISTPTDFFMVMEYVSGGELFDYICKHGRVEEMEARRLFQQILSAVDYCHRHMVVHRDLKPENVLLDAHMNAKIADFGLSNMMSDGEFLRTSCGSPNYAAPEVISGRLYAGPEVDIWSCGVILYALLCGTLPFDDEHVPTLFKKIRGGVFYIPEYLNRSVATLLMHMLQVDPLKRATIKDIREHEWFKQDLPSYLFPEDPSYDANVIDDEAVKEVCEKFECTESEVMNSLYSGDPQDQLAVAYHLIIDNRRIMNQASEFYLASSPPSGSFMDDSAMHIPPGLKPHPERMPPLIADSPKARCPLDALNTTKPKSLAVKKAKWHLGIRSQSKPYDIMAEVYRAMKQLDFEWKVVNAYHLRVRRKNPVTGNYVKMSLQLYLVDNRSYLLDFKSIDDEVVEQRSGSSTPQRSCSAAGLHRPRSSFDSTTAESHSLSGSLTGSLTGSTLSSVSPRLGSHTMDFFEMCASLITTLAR
Chain of kinase named in conditions (Homo sapiens, UniProt P04629) (P04629 33-796): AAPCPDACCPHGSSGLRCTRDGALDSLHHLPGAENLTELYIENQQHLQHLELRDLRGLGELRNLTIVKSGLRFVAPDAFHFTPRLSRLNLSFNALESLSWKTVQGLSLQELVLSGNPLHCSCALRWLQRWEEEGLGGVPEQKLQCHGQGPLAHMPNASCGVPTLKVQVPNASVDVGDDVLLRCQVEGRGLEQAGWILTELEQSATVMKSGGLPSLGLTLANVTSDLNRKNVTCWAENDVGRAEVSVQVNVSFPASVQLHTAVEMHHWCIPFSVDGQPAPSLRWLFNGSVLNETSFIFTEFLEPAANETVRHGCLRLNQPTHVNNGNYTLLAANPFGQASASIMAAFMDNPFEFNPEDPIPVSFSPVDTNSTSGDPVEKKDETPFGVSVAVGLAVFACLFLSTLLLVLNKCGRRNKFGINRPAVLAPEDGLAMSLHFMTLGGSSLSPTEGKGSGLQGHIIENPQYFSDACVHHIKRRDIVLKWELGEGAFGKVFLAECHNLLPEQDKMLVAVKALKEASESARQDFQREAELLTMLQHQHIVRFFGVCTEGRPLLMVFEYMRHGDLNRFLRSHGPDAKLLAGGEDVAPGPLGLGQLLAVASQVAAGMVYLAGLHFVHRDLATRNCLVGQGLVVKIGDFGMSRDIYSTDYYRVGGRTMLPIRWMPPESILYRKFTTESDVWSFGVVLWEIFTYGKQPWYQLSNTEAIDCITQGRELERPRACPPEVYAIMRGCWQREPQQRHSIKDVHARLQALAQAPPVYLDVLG
Chain of kinase named in conditions (Homo sapiens, UniProt P48729) (P48729 whole entry): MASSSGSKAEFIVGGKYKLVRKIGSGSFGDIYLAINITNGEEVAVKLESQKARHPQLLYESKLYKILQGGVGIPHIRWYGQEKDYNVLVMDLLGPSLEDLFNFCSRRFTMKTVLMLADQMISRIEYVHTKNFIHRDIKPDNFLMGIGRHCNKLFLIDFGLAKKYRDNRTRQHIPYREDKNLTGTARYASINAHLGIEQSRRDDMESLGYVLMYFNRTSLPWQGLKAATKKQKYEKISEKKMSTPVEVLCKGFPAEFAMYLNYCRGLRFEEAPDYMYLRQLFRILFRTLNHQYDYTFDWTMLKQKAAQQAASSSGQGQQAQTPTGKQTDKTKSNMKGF
Chain of kinase named in conditions (Homo sapiens, UniProt P00533, C797S) (P00533 25-1210 C797S): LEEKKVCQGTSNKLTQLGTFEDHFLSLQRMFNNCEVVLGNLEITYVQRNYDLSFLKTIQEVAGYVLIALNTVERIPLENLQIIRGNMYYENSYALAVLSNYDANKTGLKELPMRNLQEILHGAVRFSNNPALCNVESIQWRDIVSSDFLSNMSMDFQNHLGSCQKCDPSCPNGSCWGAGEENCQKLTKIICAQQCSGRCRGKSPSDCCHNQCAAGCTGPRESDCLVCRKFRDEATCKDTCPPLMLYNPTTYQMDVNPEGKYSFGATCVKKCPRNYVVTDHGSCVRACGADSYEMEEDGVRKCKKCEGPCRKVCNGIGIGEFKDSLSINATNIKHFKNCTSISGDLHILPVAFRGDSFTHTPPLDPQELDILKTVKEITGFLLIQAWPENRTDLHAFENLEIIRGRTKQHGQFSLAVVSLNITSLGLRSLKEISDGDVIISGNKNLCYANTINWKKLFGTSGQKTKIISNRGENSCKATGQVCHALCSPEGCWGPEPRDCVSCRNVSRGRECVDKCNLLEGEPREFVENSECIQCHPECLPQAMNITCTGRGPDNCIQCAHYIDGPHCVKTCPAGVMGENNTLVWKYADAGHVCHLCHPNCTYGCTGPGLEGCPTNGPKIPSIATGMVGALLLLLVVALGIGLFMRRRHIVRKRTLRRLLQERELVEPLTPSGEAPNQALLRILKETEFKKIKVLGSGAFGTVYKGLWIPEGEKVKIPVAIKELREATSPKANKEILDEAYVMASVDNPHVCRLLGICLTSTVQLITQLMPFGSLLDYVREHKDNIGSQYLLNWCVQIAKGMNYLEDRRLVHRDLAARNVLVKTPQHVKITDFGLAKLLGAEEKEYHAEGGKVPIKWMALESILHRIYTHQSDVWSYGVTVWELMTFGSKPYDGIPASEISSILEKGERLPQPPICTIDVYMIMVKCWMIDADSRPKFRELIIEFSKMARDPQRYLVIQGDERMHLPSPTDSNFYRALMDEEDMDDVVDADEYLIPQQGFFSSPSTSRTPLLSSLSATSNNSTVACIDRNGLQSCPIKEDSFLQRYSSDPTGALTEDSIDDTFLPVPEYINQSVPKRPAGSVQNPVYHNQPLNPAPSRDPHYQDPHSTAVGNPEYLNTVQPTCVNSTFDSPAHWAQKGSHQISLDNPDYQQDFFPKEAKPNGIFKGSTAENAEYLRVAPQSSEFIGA
Chain of kinase named in conditions (Homo sapiens, UniProt Q9NWZ3) (Q9NWZ3 whole entry): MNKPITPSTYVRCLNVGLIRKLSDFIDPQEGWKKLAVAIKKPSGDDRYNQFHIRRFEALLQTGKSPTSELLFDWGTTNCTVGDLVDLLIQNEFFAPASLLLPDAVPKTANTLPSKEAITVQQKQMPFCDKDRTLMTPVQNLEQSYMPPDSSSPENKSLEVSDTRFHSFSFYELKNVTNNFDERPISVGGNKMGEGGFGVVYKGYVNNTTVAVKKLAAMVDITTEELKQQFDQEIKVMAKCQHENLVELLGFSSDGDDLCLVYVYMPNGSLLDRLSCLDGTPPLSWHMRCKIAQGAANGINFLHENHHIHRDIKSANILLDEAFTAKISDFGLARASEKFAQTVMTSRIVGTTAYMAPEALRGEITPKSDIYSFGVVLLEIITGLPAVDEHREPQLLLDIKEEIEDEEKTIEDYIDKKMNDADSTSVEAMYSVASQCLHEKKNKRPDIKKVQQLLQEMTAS
Chain of kinase named in conditions (Homo sapiens, UniProt O75116) (O75116 whole entry): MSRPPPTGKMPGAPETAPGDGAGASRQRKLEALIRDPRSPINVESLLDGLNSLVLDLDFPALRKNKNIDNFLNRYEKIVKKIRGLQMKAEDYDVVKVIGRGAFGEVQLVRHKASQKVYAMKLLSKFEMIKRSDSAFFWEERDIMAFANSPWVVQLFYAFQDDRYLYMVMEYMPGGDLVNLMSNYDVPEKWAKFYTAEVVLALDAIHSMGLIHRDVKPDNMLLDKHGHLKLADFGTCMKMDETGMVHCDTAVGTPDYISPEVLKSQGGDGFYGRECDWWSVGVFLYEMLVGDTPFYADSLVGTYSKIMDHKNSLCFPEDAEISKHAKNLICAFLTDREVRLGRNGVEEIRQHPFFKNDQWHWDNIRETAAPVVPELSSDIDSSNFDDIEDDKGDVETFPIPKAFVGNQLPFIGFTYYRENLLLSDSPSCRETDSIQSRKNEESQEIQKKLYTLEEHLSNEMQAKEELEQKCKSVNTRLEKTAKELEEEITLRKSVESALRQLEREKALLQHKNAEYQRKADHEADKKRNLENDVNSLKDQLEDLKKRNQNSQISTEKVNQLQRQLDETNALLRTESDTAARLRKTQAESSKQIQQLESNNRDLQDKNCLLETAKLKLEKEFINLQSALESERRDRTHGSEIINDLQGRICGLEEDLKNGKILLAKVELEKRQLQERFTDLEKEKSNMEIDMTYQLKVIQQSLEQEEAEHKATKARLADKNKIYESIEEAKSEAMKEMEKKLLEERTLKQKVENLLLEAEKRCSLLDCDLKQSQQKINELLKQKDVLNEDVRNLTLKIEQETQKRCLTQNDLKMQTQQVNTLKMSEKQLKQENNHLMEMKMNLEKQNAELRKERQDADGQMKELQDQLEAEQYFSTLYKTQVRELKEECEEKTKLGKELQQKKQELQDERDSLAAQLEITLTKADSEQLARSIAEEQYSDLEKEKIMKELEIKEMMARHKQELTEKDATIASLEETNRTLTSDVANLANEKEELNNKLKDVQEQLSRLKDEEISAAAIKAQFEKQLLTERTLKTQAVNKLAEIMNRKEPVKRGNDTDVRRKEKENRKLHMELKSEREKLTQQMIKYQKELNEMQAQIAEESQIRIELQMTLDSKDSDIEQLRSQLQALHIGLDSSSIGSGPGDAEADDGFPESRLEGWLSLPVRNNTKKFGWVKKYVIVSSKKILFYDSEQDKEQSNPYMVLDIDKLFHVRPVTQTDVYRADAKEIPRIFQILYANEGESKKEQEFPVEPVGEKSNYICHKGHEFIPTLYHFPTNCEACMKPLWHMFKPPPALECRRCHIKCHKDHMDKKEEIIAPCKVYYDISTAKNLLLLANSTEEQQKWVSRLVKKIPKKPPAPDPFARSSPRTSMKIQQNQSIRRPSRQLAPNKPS
Chain of kinase named in conditions (Homo sapiens, UniProt P68400) (P68400 whole entry): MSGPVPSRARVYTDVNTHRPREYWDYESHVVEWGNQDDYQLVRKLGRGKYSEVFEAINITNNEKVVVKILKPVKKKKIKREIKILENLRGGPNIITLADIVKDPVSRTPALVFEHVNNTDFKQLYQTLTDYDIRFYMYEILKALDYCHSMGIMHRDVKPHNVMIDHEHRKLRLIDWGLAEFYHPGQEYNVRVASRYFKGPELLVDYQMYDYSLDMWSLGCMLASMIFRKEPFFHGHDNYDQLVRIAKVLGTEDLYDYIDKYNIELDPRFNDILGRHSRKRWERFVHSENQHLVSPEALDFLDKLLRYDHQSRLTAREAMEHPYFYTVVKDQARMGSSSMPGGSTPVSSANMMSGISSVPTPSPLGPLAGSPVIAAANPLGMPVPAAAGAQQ

FC(F)(F)c1c(Cl)ccc(-n2ccnn2)c1Cl [8l, 1-(2,4-Dichloro-3-(trifluoromethyl)phenyl)-1H-1,2,3-triazole]
inhibition at 10 µM [1]: -11% | inhibition at 10 µM [2]: 2% | inhibition at 10 µM [3]: 0% | inhibition at 10 µM [4]: -4% | inhibition at 10 µM [5]: -1% | inhibition at 10 µM [6]: 0% | inhibition at 10 µM [7]: 2% | inhibition at 10 µM [8]: -1% | inhibition at 10 µM [9]: -3% | inhibition at 10 µM [10]: -2% | inhibition at 10 µM [11]: -1% | inhibition at 10 µM [12]: -2% | inhibition at 10 µM [13]: 20% | inhibition at 10 µM [14]: 7% | inhibition at 10 µM [15]: 3% | inhibition at 10 µM [16]: 4% | inhibition at 10 µM [17]: 5% | inhibition at 10 µM [18]: -1% | inhibition at 10 µM [19]: 5% | inhibition at 10 µM [20]: 17% | inhibition at 10 µM [21]: -2% | inhibition at 10 µM [22]: 7% | inhibition at 10 µM [23]: 4% | inhibition at 10 µM [24]: 1% | inhibition at 10 µM [25]: 12% | inhibition at 10 µM [26]: 6% | inhibition at 10 µM [27]: -17% | inhibition at 10 µM [28]: 4% | inhibition at 10 µM [29]: 4% | inhibition at 10 µM ([30]; AMPK (A2/B1/G2), 10 μM): -2% | inhibition at 10 µM ([30]; AMPK (A2/B1/G3), 10 μM): 2% | inhibition at 10 µM ([30]; AMPK (A2/B2/G3), 10 μM): 3% | inhibition at 10 µM ([30]; AMPK A2/B1/G1, 10 μM): 14% | inhibition at 10 µM [31]: 8% | inhibition at 10 µM [32]: 5% | inhibition at 10 µM [33]: 9% | inhibition at 10 µM [34]: 16%

— paper PMC9150124, “Design of a Potent, Selective, and Brain-Penetrant Inhibitor of Wnt-Deactivating Enzyme Notum by Optimization of a Crystallographic Fragment Hit” (Journal of Medicinal Chemistry, 2022)
